Source: patent publication US20240415914A1, “Water Dispersible Cannabinoid Compositions” (priority 2021, published 2024)
Where two headings read alike, the source gives them in different places.

Legend:
[1] = Stability of cannabinoid and Vitamin E components of Beverage 2 (AB Red) stored at 8° C. and 21-25° C., LCMSMS over 570 days
Description: The LCMSMS was calibrated for 0-50 ng/ml cannabinoids with the same resin material used in the preparation of the concentrates. At each time period, 100 μml of beverage was diluted with 10 ml of methanol and injected into the LCMSMS for analysis.

[2] = assay type: physicochemical; settings: stored at room temperature (21-25° C.)
Description: At each time period, 0.05 g of powder was dissolved in 10 ml-15 of ethanol, diluted to fall within the analytical range, and injected into the LCMSMS for analysis.

CCCCCc1cc(O)c2c(c1)OC(C)(CCC=C(C)C)C=C2 (stereo not shown) [CBC, cannabichromene]
0.281 µg/mL: Stability of Cannabinoids in AB Red ([1]; 8° C., 150 days)
0.070 mg/g powder: Stability in Powder Concentrate (content by LCMSMS) ([2]; day 0) | Stability in Powder Concentrate (content by LCMSMS) ([2]; day 5) | Stability in Powder Concentrate (content by LCMSMS) ([2]; day 17) | Stability in Powder Concentrate (content by LCMSMS) ([2]; day 19) | Stability in Powder Concentrate (content by LCMSMS) ([2]; day 540)
0.285 µg/mL: Stability of Cannabinoids in AB Red ([1]; 8° C., 3 days) | Stability of Cannabinoids in AB Red ([1]; 8° C., 12 days) | Stability of Cannabinoids in AB Red ([1]; 8° C., 180 days)
0.072 mg/g powder: Stability in Powder Concentrate (content by LCMSMS) ([2]; day 1) | Stability in Powder Concentrate (content by LCMSMS) ([2]; day 18) | Stability in Powder Concentrate (content by LCMSMS) ([2]; day 25) | Stability in Powder Concentrate (content by LCMSMS) ([2]; day 30) | Stability in Powder Concentrate (content by LCMSMS) ([2]; day 120) | Stability in Powder Concentrate (content by LCMSMS) ([2]; day 150) | Stability in Powder Concentrate (content by LCMSMS) ([2]; day 210) | Stability in Powder Concentrate (content by LCMSMS) ([2]; day 270)
0.271 µg/mL: Stability of Cannabinoids in AB Red ([1]; 8° C., 540 days)
0.267 µg/mL: Stability of Cannabinoids in AB Red ([1]; 8° C., 510 days)
0.287 µg/mL: Stability of Cannabinoids in AB Red ([1]; 8° C., 19 days) | Stability of Cannabinoids in AB Red ([1]; 8° C., 22 days) | Stability of Cannabinoids in AB Red ([1]; 8° C., 23 days) | Stability of Cannabinoids in AB Red ([1]; 8° C., 25 days) | Stability of Cannabinoids in AB Red ([1]; 8° C., 26 days) | Stability of Cannabinoids in AB Red ([1]; 8° C., 90 days)
0.073 mg/g powder: Stability in Powder Concentrate (content by LCMSMS) ([2]; day 3) | Stability in Powder Concentrate (content by LCMSMS) ([2]; day 15) | Stability in Powder Concentrate (content by LCMSMS) ([2]; day 16) | Stability in Powder Concentrate (content by LCMSMS) ([2]; day 450)
0.266 µg/mL: Stability of Cannabinoids in AB Red ([1]; 8° C., 570 days)
0.292 µg/mL: Stability of Cannabinoids in AB Red ([1]; 8° C., 2 days) | Stability of Cannabinoids in AB Red ([1]; 8° C., 15 days)
0.286 µg/mL: Stability of Cannabinoids in AB Red ([1]; 8° C., 5 days) | Stability of Cannabinoids in AB Red ([1]; 8° C., 8 days)
0.274 µg/mL: Stability of Cannabinoids in AB Red ([1]; 8° C., 480 days)
0.289 µg/mL: Stability of Cannabinoids in AB Red ([1]; 8° C., 1 days) | Stability of Cannabinoids in AB Red ([1]; 8° C., 18 days) | Stability of Cannabinoids in AB Red ([1]; 8° C., 120 days)
0.288 µg/mL: Stability of Cannabinoids in AB Red ([1]; 8° C., 9 days) | Stability of Cannabinoids in AB Red ([1]; 8° C., 10 days)
0.280 µg/mL: Stability of Cannabinoids in AB Red ([1]; 8° C., 240 days) | Stability of Cannabinoids in AB Red ([1]; 8° C., 300 days)
0.290 µg/mL: Stability of Cannabinoids in AB Red ([1]; 8° C., 0 days)
0.27 µg/mL: Stability of Cannabinoids in AB Red ([1]; 21-25° C., 510 days) | Stability of Cannabinoids in AB Red ([1]; 21-25° C., 570 days)
0.29 µg/mL: Stability of Cannabinoids in AB Red ([1]; 21-25° C., 0 days) | Stability of Cannabinoids in AB Red ([1]; 21-25° C., 3 days) | Stability of Cannabinoids in AB Red ([1]; 21-25° C., 10 days) | Stability of Cannabinoids in AB Red ([1]; 21-25° C., 11 days) | Stability of Cannabinoids in AB Red ([1]; 21-25° C., 18 days) | Stability of Cannabinoids in AB Red ([1]; 21-25° C., 19 days) | Stability of Cannabinoids in AB Red ([1]; 21-25° C., 22 days) | Stability of Cannabinoids in AB Red ([1]; 21-25° C., 24 days) | Stability of Cannabinoids in AB Red ([1]; 21-25° C., 29 days) | Stability of Cannabinoids in AB Red ([1]; 21-25° C., 30 days) | Stability of Cannabinoids in AB Red ([1]; 21-25° C., 60 days) | Stability of Cannabinoids in AB Red ([1]; 21-25° C., 120 days) | Stability of Cannabinoids in AB Red ([1]; 21-25° C., 150 days) | Stability of Cannabinoids in AB Red ([1]; 21-25° C., 210 days) | Stability of Cannabinoids in AB Red ([1]; 21-25° C., 270 days) | Stability of Cannabinoids in AB Red ([1]; 21-25° C., 300 days) | Stability of Cannabinoids in AB Red ([1]; 21-25° C., 330 days)
0.068 mg/g powder: Stability in Powder Concentrate (content by LCMSMS) ([2]; day 9) | Stability in Powder Concentrate (content by LCMSMS) ([2]; day 24) | Stability in Powder Concentrate (content by LCMSMS) ([2]; day 60) | Stability in Powder Concentrate (content by LCMSMS) ([2]; day 90) | Stability in Powder Concentrate (content by LCMSMS) ([2]; day 240) | Stability in Powder Concentrate (content by LCMSMS) ([2]; day 360) | Stability in Powder Concentrate (content by LCMSMS) ([2]; day 390)
0.071 mg/g powder: Stability in Powder Concentrate (content by LCMSMS) ([2]; day 2) | Stability in Powder Concentrate (content by LCMSMS) ([2]; day 8) | Stability in Powder Concentrate (content by LCMSMS) ([2]; day 10) | Stability in Powder Concentrate (content by LCMSMS) ([2]; day 11) | Stability in Powder Concentrate (content by LCMSMS) ([2]; day 22) | Stability in Powder Concentrate (content by LCMSMS) ([2]; day 26) | Stability in Powder Concentrate (content by LCMSMS) ([2]; day 180) | Stability in Powder Concentrate (content by LCMSMS) ([2]; day 300) | Stability in Powder Concentrate (content by LCMSMS) ([2]; day 480)
0.28 µg/mL: Stability of Cannabinoids in AB Red ([1]; 21-25° C., 1 days) | Stability of Cannabinoids in AB Red ([1]; 21-25° C., 2 days) | Stability of Cannabinoids in AB Red ([1]; 21-25° C., 5 days) | Stability of Cannabinoids in AB Red ([1]; 21-25° C., 8 days) | Stability of Cannabinoids in AB Red ([1]; 21-25° C., 9 days) | Stability of Cannabinoids in AB Red ([1]; 21-25° C., 12 days) | Stability of Cannabinoids in AB Red ([1]; 21-25° C., 15 days) | Stability of Cannabinoids in AB Red ([1]; 21-25° C., 16 days) | Stability of Cannabinoids in AB Red ([1]; 21-25° C., 17 days) | Stability of Cannabinoids in AB Red ([1]; 21-25° C., 23 days) | Stability of Cannabinoids in AB Red ([1]; 21-25° C., 25 days) | Stability of Cannabinoids in AB Red ([1]; 21-25° C., 26 days) | Stability of Cannabinoids in AB Red ([1]; 21-25° C., 90 days) | Stability of Cannabinoids in AB Red ([1]; 21-25° C., 180 days) | Stability of Cannabinoids in AB Red ([1]; 21-25° C., 240 days) | Stability of Cannabinoids in AB Red ([1]; 21-25° C., 390 days) | Stability of Cannabinoids in AB Red ([1]; 21-25° C., 420 days) | Stability of Cannabinoids in AB Red ([1]; 21-25° C., 450 days) | Stability of Cannabinoids in AB Red ([1]; 21-25° C., 480 days) | Stability of Cannabinoids in AB Red ([1]; 21-25° C., 540 days)
0.069 mg/g powder: Stability in Powder Concentrate (content by LCMSMS) ([2]; day 12) | Stability in Powder Concentrate (content by LCMSMS) ([2]; day 23) | Stability in Powder Concentrate (content by LCMSMS) ([2]; day 29) | Stability in Powder Concentrate (content by LCMSMS) ([2]; day 330) | Stability in Powder Concentrate (content by LCMSMS) ([2]; day 420) | Stability in Powder Concentrate (content by LCMSMS) ([2]; day 510) | Stability in Powder Concentrate (content by LCMSMS) ([2]; day 570)
0.282 µg/mL: Stability of Cannabinoids in AB Red ([1]; 8° C., 17 days) | Stability of Cannabinoids in AB Red ([1]; 8° C., 30 days) | Stability of Cannabinoids in AB Red ([1]; 8° C., 210 days) | Stability of Cannabinoids in AB Red ([1]; 8° C., 390 days) | Stability of Cannabinoids in AB Red ([1]; 8° C., 450 days)
0.277 µg/mL: Stability of Cannabinoids in AB Red ([1]; 8° C., 420 days)
0.284 µg/mL: Stability of Cannabinoids in AB Red ([1]; 8° C., 11 days) | Stability of Cannabinoids in AB Red ([1]; 8° C., 29 days) | Stability of Cannabinoids in AB Red ([1]; 8° C., 270 days)
0.278 µg/mL: Stability of Cannabinoids in AB Red ([1]; 8° C., 60 days) | Stability of Cannabinoids in AB Red ([1]; 8° C., 330 days)
0.291 µg/mL: Stability of Cannabinoids in AB Red ([1]; 8° C., 24 days)
0.283 µg/mL: Stability of Cannabinoids in AB Red ([1]; 8° C., 16 days)
